Experimental data: publication PMC4367962 (Nature, 2014)

Legend:
[1] = mouse, in vivo, iv
[2] = test system: mir-155^LSLtTA lymphoma subcutaneous flank tumors; assay: mir-155^LSLtTA lymphoma subcutaneous flank tumor model in nude mice; format: in vivo; settings: early endpoint study; n = 3, pHLIP-anti155 n = 4

Row | Kidney distribution [1] | Compound | Clearance route [1] | Onset of splenomegaly (spleen mass) [2]
1 | shows kidney targeting | AAEQNPIYWARYADWLFTTPLLLLDLALLVDADEGT(CNPys)G [pHLIP] | much of the peptide is cleared by renal excretion | –
2 | – | C[C@H]1c2cccc(O)c2C(=O)C2=C(O)[C@]3(O)C(=O)C(C(N)=O)=C(O)[C@@H](N(C)C)[C@@H]3[C@@H](O)[C@@H]21 [DOX, doxycycline] | – | reduced the onset of splenomegaly
